{"source": "ChEMBL document CHEMBL1152503", "about": "“Quantitative high-throughput screening identifies inhibitors of anthrax-induced cell death” (Bioorg Med Chem, 2009)", "key": {"[1]": {"system": "CHO", "experiment": "Cytoprotective activity against anthrax fusion toxin FP59-induced cell death in CHO cells assessed as cell viability by MTT reduction assay", "type": "functional, cell-based", "settings": "Cricetulus griseus"}, "[2]": {"system": "CHO", "experiment": "Cytoprotective activity against diphtheria toxin-induced cell death in CHO cells assessed as cell viability at 10 uM by MTT reduction assay", "type": "functional", "settings": "Cricetulus griseus, read-out: Activity"}, "[3]": {"system": "RAW264.7", "experiment": "Cytoprotective activity against anthrax toxin lethal factor/protective antigen-induced cell death in mouse RAW264.7 cells assessed as cell viability at 10 uM by MTT reduction assay", "type": "functional, cell-based"}, "[4]": {"system": "RAW264.7", "experiment": "Cytotoxicity against mouse RAW264.7 cells at 10 uM by MTT assay", "type": "cell-based", "settings": "raw264.7, 10 µM"}, "[5]": {"biological_target": "Replicase polyprotein 1ab (Severe acute respiratory syndrome-related coronavirus, UniProt P0C6X7)", "experiment": "Inhibition of SARS Co-V 3CL protease"}, "[6]": {"system": "CHO", "experiment": "Cytoprotective activity against diphtheria toxin-induced cell death in CHO cells assessed as cell viability at 5 uM by MTT reduction assay", "type": "functional", "settings": "Cricetulus griseus, read-out: Activity"}, "[7]": {"system": "RAW264.7", "experiment": "Cytoprotective activity against anthrax toxin lethal factor-induced cell death in mouse RAW264.7 cells assessed as cell viability at 3 uM by MTT reduction assay", "type": "functional, cell-based"}, "[8]": {"system": "RAW264.7", "experiment": "Cytoprotective activity against anthrax lethal toxin-induced cell death in mouse RAW264.7 cells assessed as cell viability at 2 uM preincubated for 45 mins with lethal toxin measured after 1 hr by MTT reduction assay", "type": "functional, cell-based"}}, "note": "The source made the active and inactive calls. The calls are words filed in the database; no cut-off is given here."}
{"smiles": "Cc1ccc2oc(=O)c3cnn(CC(=O)Nc4ccccc4N4CCN(C)CC4)c3c2c1", "values": [{"measurement": "Activity", "setting": "[1]", "value": "Active"}, {"measurement": "viability at 10 µM", "setting": "[2]", "value": 75, "unit": "%"}, {"measurement": "Activity", "setting": "[3]", "value": "Active"}]}
{"smiles": "CN(C)CCCn1cc(C2=C(c3c[nH]c4ccccc34)C(=O)NC2=O)c2ccccc21", "note": "[GF-109203]", "values": [{"measurement": "Activity", "setting": "[4]", "value": "Toxic"}, {"measurement": "viability at 10 µM", "setting": "[2]", "value": 60, "unit": "%"}]}
{"smiles": "Cc1ccnc(-n2sc3ccccc3c2=O)n1", "values": [{"measurement": "Activity", "setting": "[3]", "value": "inactive"}]}
{"smiles": "O=C(Nc1ccc([N+](=O)[O-])cc1Cl)c1cc(Cl)ccc1O", "note": "[NICLOSAMIDE]", "values": [{"measurement": "Activity", "setting": "[1]", "value": "Active"}, {"measurement": "Activity", "setting": "[3]", "value": "Active"}, {"measurement": "IC50", "setting": "[5]", "value": 40, "unit": "µM"}, {"measurement": "viability at 5 µM", "setting": "[6]", "value": 100, "unit": "%"}]}
{"smiles": "N=C1Sc2ccccc2C2=NCCCN12", "values": [{"measurement": "Activity", "setting": "[3]", "value": "inactive"}]}
{"smiles": "COc1cc2c(O)c3c(c(-c4ccc5c(c4)OCO5)c2cc1OC)C(=O)OC3", "note": "[DIPHYLLIN]", "values": [{"measurement": "Activity", "setting": "[7]", "value": "Active"}, {"measurement": "Activity", "setting": "[1]", "value": "Active"}, {"measurement": "viability at 5 µM", "setting": "[6]", "value": 100, "unit": "%"}, {"measurement": "Activity", "setting": "[8]", "value": "Active"}]}
